# Legend:
# Format in all cases: in vivo
# [1] = tested on: human HCT-8 colon cancer; experiment: Transplanted human HCT-8 colon cancer in nude mice; conditions: 5 mg/kg i.p. twice a week for 4 weeks; day 30
# Text: The establishing method is basically the same as that in Example 10.
# Observing the tumor growth of the nude mice inoculated with the human HCT-8 colon cancer and, when the tumor volume is about 50-100 mm^3, screening according to the size of the tumor volume, with the too large tumor and minor tumor not selected.
# The above nude mice inoculated with human HCT-8 colon cancer were divided into the following seven groups (8 mice/group) for administration, intraperitoneally injecting twice a week successively for 4 weeks, and ending the test on the 30th day (D30).
# (§1) At the end of experiment, tumors were removed after euthanasia, and the tumor weight were measured. The treatment effect was measured by the ratio of tumor size in the testing group (T) versus the control group (C), i.e. T/C %.
# After the first treatment, the long and short diameters of the tumor were measured twice a week, and the tumor volume V and the relative tumor volume RTV thereof (Vt/VO) were calculated
# At day 30, each animal was euthanized, and its tumor was removed and weighted and the average tumor weight in each group was calculated.
# [2] = tested on: human Ls-174-T colon cancer; experiment: Transplanted human Ls-174-T colon cancer in nude mice; conditions: 5 mg/kg i.p. twice a week for 4 weeks; day 29
# Experimental: Two nude mice were prepared to serve as tumor bearing mice. 1×10^7 of human Ls-174-T colon cancer cells (purchased from Cell Preservation Center of Shanghai Institutes for Biological Sciences, Chinese Academy of Sciences) at the log-growth cycle, or tumor mass in a size of about 1.5 mm^3, were inoculated subcutaneously into the right armpit of these two nude mice. […]
# as §1
# After the first administration, both the long and short diameters of tumors were recorded twice a week, and tumor volume (V) and the relative tumor volume (RTV) were calculated. The calculation formula for RTV is: RTV=Vt/Vo, where Vt is the tumor volume measured at each time point (day), and Vo is the initial (before administration) tumor volume.
# At day 29, each animal was euthanized, and its tumor was removed and weighted and the average tumor weight in each group was calculated.
# [3] = tested on: human MDA-MB-231 breast cancer; experiment: Transplanted human MDA-MB-231 breast cancer in nude mice; conditions: 5 mg/kg i.p. twice a week for 5 weeks; day 36
# Text: The tumor model establishment is basically the same as that in Example 10.
# (§2) Nude mice were inoculated with human MDA-MB-231 breast cancer. When the tumor volume reached about 50-100 mm^3, a screening was done and those mice bearing tumors too small or too large in size were excluded. The selected mice were then randomly divided into different groups for different doses of drugs
# The above nude mice inoculated with human MDA-MB-231 breast cancer were divided into the following five treatment groups (7 mice/group). Antibodies were injected intraperitoneally twice a week for 5 weeks, and ending the test on the 36th day (D36).
# as §1
# (§3) After the first administration, the long and short diameters of the tumor were measured twice a week, and the tumor volume (V) and the relative tumor volume RTV thereof (Vt/VO) were calculated.
# At day 36, each animal was euthanized, and its tumor was removed and weighted and the average tumor weight in each group was calculated.
# [4] = tested on: human A673 rhabdomyosarcoma; experiment: Transplanted human A673 rhabdomyosarcoma in nude mice; conditions: 5 mg/kg i.p. twice a week for 3 weeks; day 22
# Text: The establishment of this tumor method is basically the same as that in Example 10.
# as §2, with “A673 rhabdomyosarcoma.” for “MDA-MB-231 breast cancer.”
# Dividing the above nude mice inoculated with the human A673 rhabdomyosarcoma into the following six groups (6 mice/group) for administration, intraperitoneally injecting twice a week successively for 3 weeks, and ending the test on the 22nd day (D22).
# as §1, §3
# At day 22, each animal was euthanized, and its tumor was removed and weighted and the average tumor weight in each group was calculated.
Compound,average tumor weight [1] [g],tumor weight inhibition rate [1] [%],average tumor weight [2] [g],tumor weight inhibition rate [2] [%],average tumor weight [3] [g],tumor weight inhibition rate [3] [%],average tumor weight [4] [g],tumor weight inhibition rate [4] [%]
"N.N.[Cl][Pt][Cl] [cisplatin, reference compound]",1.201,25.29,,,,,,
Avastin: humanized anti-VEGF monoclonal antibody drug developed and produced by Roche/Genentech [reference compound],,,0.767,74.05,0.543,38.99,3.323,61.92
